Laboratory results published in patent publication US8940724B2, “Quinoline derivitives and their uses” (Amgen Inc., priority 2009, dated 2015).

Target: T1, PI3Kδ (Homo sapiens, UniProt O00329)
T1 construct: Full length p110 subunits of PI3k α, β and δ, N-terminally labeled with polyHis tag; polyHis (N); made in house; host or cells: Sf9 insect cells (baculovirus)
Assay: PI3Kδ Alphascreen assay
Type: biochemical

T1 sequence (O00329 whole entry): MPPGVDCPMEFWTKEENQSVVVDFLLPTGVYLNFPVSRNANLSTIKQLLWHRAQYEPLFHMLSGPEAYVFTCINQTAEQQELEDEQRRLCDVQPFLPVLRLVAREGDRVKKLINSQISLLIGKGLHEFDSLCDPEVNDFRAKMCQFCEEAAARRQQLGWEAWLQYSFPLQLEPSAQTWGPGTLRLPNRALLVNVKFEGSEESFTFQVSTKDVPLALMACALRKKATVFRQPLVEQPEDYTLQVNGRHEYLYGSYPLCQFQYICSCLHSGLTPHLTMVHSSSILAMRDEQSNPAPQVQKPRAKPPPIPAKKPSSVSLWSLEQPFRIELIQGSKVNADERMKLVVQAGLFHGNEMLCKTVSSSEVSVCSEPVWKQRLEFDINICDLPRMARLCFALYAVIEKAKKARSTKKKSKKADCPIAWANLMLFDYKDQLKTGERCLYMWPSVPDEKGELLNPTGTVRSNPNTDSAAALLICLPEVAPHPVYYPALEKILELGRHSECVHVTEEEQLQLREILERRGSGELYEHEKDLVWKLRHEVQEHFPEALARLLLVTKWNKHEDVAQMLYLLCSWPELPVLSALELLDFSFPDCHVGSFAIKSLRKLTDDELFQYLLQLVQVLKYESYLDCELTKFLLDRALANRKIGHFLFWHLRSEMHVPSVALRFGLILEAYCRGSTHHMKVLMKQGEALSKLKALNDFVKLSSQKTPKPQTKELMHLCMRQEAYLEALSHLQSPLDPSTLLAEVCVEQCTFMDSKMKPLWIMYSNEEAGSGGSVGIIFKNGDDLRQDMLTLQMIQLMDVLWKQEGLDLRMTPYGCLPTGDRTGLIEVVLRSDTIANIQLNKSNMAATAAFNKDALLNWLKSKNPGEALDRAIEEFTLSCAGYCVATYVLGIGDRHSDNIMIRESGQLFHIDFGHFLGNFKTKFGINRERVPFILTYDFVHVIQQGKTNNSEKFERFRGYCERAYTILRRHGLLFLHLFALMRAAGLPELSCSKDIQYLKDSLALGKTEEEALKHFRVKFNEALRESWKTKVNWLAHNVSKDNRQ
T1 sequence (P27986 whole entry partner): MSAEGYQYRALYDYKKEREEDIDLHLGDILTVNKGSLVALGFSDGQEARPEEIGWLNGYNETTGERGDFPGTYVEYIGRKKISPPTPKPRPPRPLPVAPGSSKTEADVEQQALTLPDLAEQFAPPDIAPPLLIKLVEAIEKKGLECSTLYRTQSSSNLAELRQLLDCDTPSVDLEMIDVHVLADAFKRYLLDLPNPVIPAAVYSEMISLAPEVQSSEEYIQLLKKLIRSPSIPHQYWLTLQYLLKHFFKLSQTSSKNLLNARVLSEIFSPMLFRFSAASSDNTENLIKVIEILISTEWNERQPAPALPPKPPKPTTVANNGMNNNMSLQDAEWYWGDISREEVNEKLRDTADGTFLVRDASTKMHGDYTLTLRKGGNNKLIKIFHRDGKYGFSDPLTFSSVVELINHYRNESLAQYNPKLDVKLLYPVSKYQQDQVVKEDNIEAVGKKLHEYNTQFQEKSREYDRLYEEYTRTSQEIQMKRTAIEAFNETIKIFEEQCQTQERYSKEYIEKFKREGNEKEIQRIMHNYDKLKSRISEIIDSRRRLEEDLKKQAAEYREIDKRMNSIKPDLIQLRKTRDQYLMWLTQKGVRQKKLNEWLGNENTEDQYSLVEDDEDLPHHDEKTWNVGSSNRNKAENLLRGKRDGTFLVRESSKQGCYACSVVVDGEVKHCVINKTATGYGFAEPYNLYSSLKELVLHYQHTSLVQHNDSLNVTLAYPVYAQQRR

Row | SMILES | Ki [nM]
1 | Cc1c(-c2ccnc(N3CCNCC3)c2)nc2cc(F)cc(F)c2c1Nc1cc(N2CCOCC2)cnc1N1CCOCC1 [N-(2,5-di-4-morpholinyl-3-pyridinyl)-5,7-difluoro-3-methyl-2-(2-(1-piperazinyl)-4-pyridinyl)-4-quinolinamine] | 34.7
2 | Cc1c(-c2ccnc(N3CCCC3)c2)nc2cc(F)cc(F)c2c1Nc1cc(N2CCOCC2)cnc1N1CCOCC1 [N-(2,5-di-4-morpholinyl-3-pyridinyl)-5,7-difluoro-3-methyl-2-(2-(1-pyrrolidinyl)-4-pyridinyl)-4-quinolinamine] | 40.7
3 | Cc1c(-c2ccnc(N3CCN(C)CC3)c2)nc2cc(F)cc(F)c2c1Nc1cc(N2CCOCC2)cnc1N1CCOCC1 [N-(2,5-di-4-morpholinyl-3-pyridinyl)-5,7-difluoro-3-methyl-2-(2-(4-methyl-1-piperazinyl)-4-pyridinyl)-4-quinolinamine] | 15
4 | Cc1c(-c2ccccc2[S@+](C)[O-])nc2cc(F)cc(F)c2c1Nc1cc(N2CCOCC2)cnc1N1CCOCC1 [N-(2,5-di-4-morpholinyl-3-pyridinyl)-5,7-difluoro-3-methyl-2-(2-((S)-methylsulfinyl)phenyl)-4-quinolinamine] | 51
5 | Cc1cc(-c2nc3cc(F)cc(F)c3c(Nc3cc(N4CCOCC4)cnc3N3CCOCC3)c2C)ccn1 [N-(2,5-di-4-morpholinyl-3-pyridinyl)-5,7-difluoro-3-methyl-2-(2-methyl-4-pyridinyl)-4-quinolinamine] | 26.5
6 | Cc1c(N2CCN(C)CC2)nc2cc(F)cc(F)c2c1Nc1cc(N2CCOCC2)cnc1N1CCOCC1 [N-(2,5-di-4-morpholinyl-3-pyridinyl)-5,7-difluoro-3-methyl-2-(4-methyl-1-piperazinyl)-4-quinolinamine] | 12
7 | Cc1ccnc(-c2nc3cc(F)cc(F)c3c(Nc3cc(N4CCOCC4)cnc3N3CCOCC3)c2C)c1 [N-(2,5-di-4-morpholinyl-3-pyridinyl)-5,7-difluoro-3-methyl-2-(4-methyl-2-pyridinyl)-4-quinolinamine] | 237
8 | CSc1cncc(-c2nc3cc(F)cc(F)c3c(Nc3cc(N4CCOCC4)cnc3N3CCOCC3)c2C)c1 [N-(2,5-di-4-morpholinyl-3-pyridinyl)-5,7-difluoro-3-methyl-2-(5-(methylsulfanyl)-3-pyridinyl)-4-quinolinamine] | 11.3
9 | Cc1c(-c2cncc(S(C)(=O)=O)c2)nc2cc(F)cc(F)c2c1Nc1cc(N2CCOCC2)cnc1N1CCOCC1 [N-(2,5-di-4-morpholinyl-3-pyridinyl)-5,7-difluoro-3-methyl-2-(5-(methylsulfonyl)-3-pyridinyl)-4-quinolinamine] | 83.8
10 | Cc1ccc(S(C)(=O)=O)c(-c2nc3cc(F)cc(F)c3c(Nc3cc(N4CCOCC4)cnc3N3CCOCC3)c2C)c1 [N-(2,5-di-4-morpholinyl-3-pyridinyl)-5,7-difluoro-3-methyl-2-(5-methyl-2-(methylsulfonyl)phenyl)-4-quinolinamine] | 8.22
11 | Cc1cncc(-c2nc3cc(F)cc(F)c3c(Nc3cc(N4CCOCC4)cnc3N3CCOCC3)c2C)c1 [N-(2,5-di-4-morpholinyl-3-pyridinyl)-5,7-difluoro-3-methyl-2-(5-methyl-3-pyridinyl)-4-quinolinamine] | 8.92
12 | Cc1c(-c2ccc(N3CCCC3)nc2)nc2cc(F)cc(F)c2c1Nc1cc(N2CCOCC2)cnc1N1CCOCC1 [N-(2,5-di-4-morpholinyl-3-pyridinyl)-5,7-difluoro-3-methyl-2-(6-(1-pyrrolidinyl)-3-pyridinyl)-4-quinolinamine] | 46.8
13 | Cc1c(-c2ccc(N3CCN(C)CC3)nc2)nc2cc(F)cc(F)c2c1Nc1cc(N2CCOCC2)cnc1N1CCOCC1 [N-(2,5-di-4-morpholinyl-3-pyridinyl)-5,7-difluoro-3-methyl-2-(6-(4-methyl-1-piperazinyl)-3-pyridinyl)-4-quinolinamine] | 295
14 | Cc1c(-c2ccc(N3CCC(C)CC3)nc2)nc2cc(F)cc(F)c2c1Nc1cc(N2CCOCC2)cnc1N1CCOCC1 [N-(2,5-di-4-morpholinyl-3-pyridinyl)-5,7-difluoro-3-methyl-2-(6-(4-methyl-1-piperidinyl)-3-pyridinyl)-4-quinolinamine] | 134
15 | Cc1c(-c2ccc(N3CCOCC3)nc2)nc2cc(F)cc(F)c2c1Nc1cc(N2CCOCC2)cnc1N1CCOCC1 [N-(2,5-di-4-morpholinyl-3-pyridinyl)-5,7-difluoro-3-methyl-2-(6-(4-morpholinyl)-3-pyridinyl)-4-quinolinamine] | 67.5
16 | Cc1c(-c2ccc(C(F)(F)F)nc2)nc2cc(F)cc(F)c2c1Nc1cc(N2CCOCC2)cnc1N1CCOCC1 [N-(2,5-di-4-morpholinyl-3-pyridinyl)-5,7-difluoro-3-methyl-2-(6-(trifluoromethyl)-3-pyridinyl)-4-quinolinamine] | 23.2
17 | Cc1ccc(-c2nc3cc(F)cc(F)c3c(Nc3cc(N4CCOCC4)cnc3N3CCOCC3)c2C)cn1 [N-(2,5-di-4-morpholinyl-3-pyridinyl)-5,7-difluoro-3-methyl-2-(6-methyl-3-pyridinyl)-4-quinolinamine] | 18
18 | Cc1c(-c2ccccn2)nc2c(F)cc(F)cc2c1Nc1cc(N2CCOCC2)cnc1N1CCOCC1 [N-(2,5-di-4-morpholinyl-3-pyridinyl)-6,8-difluoro-3-methyl-2-(2-pyridinyl)-4-quinolinamine] | 345
19 | Cc1ccnc(-c2nc3cc(F)ccc3c(Nc3cc(N4CCOCC4)cnc3N3CCOCC3)c2C(C)C)c1 [N-(2,5-di-4-morpholinyl-3-pyridinyl)-7-fluoro-3-(1-methylethyl)-2-(4-methyl-2-pyridinyl)-4-quinolinamine] | 14.3
20 | Cc1c(-c2cc([N+](=O)[O-])ccc2S(C)(=O)=O)nc2cc(F)ccc2c1Nc1cc(N2CCOCC2)cnc1N1CCOCC1 [N-(2,5-di-4-morpholinyl-3-pyridinyl)-7-fluoro-3-methyl-2-(2-(methylsulfonyl)-5-nitrophenyl)-4-quinolinamine] | 8.25
21 | Cc1ccnc(-c2nc3cc(F)ccc3c(Nc3cc(N4CCOCC4)cnc3N3CCOCC3)c2C)c1 [N-(2,5-di-4-morpholinyl-3-pyridinyl)-7-fluoro-3-methyl-2-(4-methyl-2-pyridinyl)-4-quinolinamine] | 35.1
22 | Cc1c(-c2ccccn2)nc2cnccc2c1Nc1cc(N2CCOCC2)ccc1N1CCOCC1 [N-(2,5-di-4-morpholinylphenyl)-3-methyl-2-(2-pyridinyl)-1,7-naphthyridin-4-amine] | 876
23 | Cc1c(-c2ccccn2)nc2cc(F)cc(F)c2c1Nc1cc(N2CCOCC2)cnc1-c1cccc(OC(F)F)c1 [N-(2-(3-(difluoromethoxy)phenyl)-5-(4-morpholinyl)-3-pyridinyl)-5,7-difluoro-3-methyl-2-(2-pyridinyl)-4-quinolinamine] | 2.26
24 | Cc1c(-c2ccccn2)nc2cc(F)cc(F)c2c1Nc1cc(N2CCOCC2)cnc1-c1ccc(OC(F)F)cc1 [N-(2-(4-(difluoromethoxy)phenyl)-5-(4-morpholinyl)-3-pyridinyl)-5,7-difluoro-3-methyl-2-(2-pyridinyl)-4-quinolinamine] | 1.25
25 | Cc1c(-c2ccccn2)nc2cc(F)cc(F)c2c1Nc1cc(N2CCOCC2)cnc1Cl [N-(2-chloro-5-(4-morpholinyl)-3-pyridinyl)-5,7-difluoro-3-methyl-2-(2-pyridinyl)-4-quinolinamine] | 4.26

Further lines, results first:

Row | Ki [nM] | SMILES
26 | 1.71 | Cc1ncccc1-c1nc2cc(F)cc(F)c2c(Nc2cc(N3CCOCC3)cnc2N2CCOCC2)c1C [N-(2,5-di-4-morpholinyl-3-pyridinyl)-5,7-difluoro-3-methyl-2-(2-methyl-3-pyridinyl)-4-quinolinamine]
27 | 248 | Cc1cc(C(F)(F)F)ccc1-c1nc2cc(F)cc(F)c2c(Nc2cc(N3CCOCC3)cnc2N2CCOCC2)c1C [N-(2,5-di-4-morpholinyl-3-pyridinyl)-5,7-difluoro-3-methyl-2-(2-methyl-4-(trifluoromethyl)phenyl)-4-quinolinamine]
28 | 7.95 | Cc1c(-c2cnccn2)nc2cc(F)cc(F)c2c1Nc1cc(N2CCOCC2)cnc1N1CCOCC1 [N-(2,5-di-4-morpholinyl-3-pyridinyl)-5,7-difluoro-3-methyl-2-(2-pyrazinyl)-4-quinolinamine]
29 | 8.43 | Cc1c(-c2cccnc2)nc2cc(F)cc(F)c2c1Nc1cc(N2CCOCC2)cnc1N1CCOCC1 [N-(2,5-di-4-morpholinyl-3-pyridinyl)-5,7-difluoro-3-methyl-2-(3-pyridinyl)-4-quinolinamine]
30 | 1.61 | Cc1ccncc1-c1nc2cc(F)cc(F)c2c(Nc2cc(N3CCOCC3)cnc2N2CCOCC2)c1C [N-(2,5-di-4-morpholinyl-3-pyridinyl)-5,7-difluoro-3-methyl-2-(4-methyl-3-pyridinyl)-4-quinolinamine]
31 | 47.9 | Cc1c(-c2cc(-c3ccccc3)ccn2)nc2cc(F)cc(F)c2c1Nc1cc(N2CCOCC2)cnc1N1CCOCC1 [N-(2,5-di-4-morpholinyl-3-pyridinyl)-5,7-difluoro-3-methyl-2-(4-phenyl-2-pyridinyl)-4-quinolinamine]
32 | 56.3 | Cc1c(-c2ccc(N3CCNCC3)nc2)nc2cc(F)cc(F)c2c1Nc1cc(N2CCOCC2)cnc1N1CCOCC1 [N-(2,5-di-4-morpholinyl-3-pyridinyl)-5,7-difluoro-3-methyl-2-(6-(1-piperazinyl)-3-pyridinyl)-4-quinolinamine]
33 | 44 | Cc1c(-c2ccc(N3CCCCC3)nc2)nc2cc(F)cc(F)c2c1Nc1cc(N2CCOCC2)cnc1N1CCOCC1 [N-(2,5-di-4-morpholinyl-3-pyridinyl)-5,7-difluoro-3-methyl-2-(6-(1-piperidinyl)-3-pyridinyl)-4-quinolinamine]
34 | 11.2 | Cc1c(-c2cc([N+](=O)[O-])ccc2F)nc2cc(F)ccc2c1Nc1cc(N2CCOCC2)cnc1N1CCOCC1 [N-(2,5-di-4-morpholinyl-3-pyridinyl)-7-fluoro-2-(2-fluoro-5-nitrophenyl)-3-methyl-4-quinolinamine]
35 | 582 | Cc1c(-c2ccccn2)nc2ncccc2c1Nc1cc(N2CCOCC2)ccc1N1CCOCC1 [N-(2,5-di-4-morpholinylphenyl)-3-methyl-2-(2-pyridinyl)-1,8-naphthyridin-4-amine]
36 | 7.65 | Cc1c(-c2ccccn2)nc2cc(F)cc(F)c2c1Nc1cc(N2CCOCC2)ccc1C1=CCOCC1 [N-(2-(3,6-dihydro-2H-pyran-4-yl)-5-(4-morpholinyl)phenyl)-5,7-difluoro-3-methyl-2-(2-pyridinyl)-4-quinolinamine]
